Experiments:
Experiment in all cases: biochemical
Conditions in all cases: read-out: % enzyme activity, 1 μM; Run 1, Run 2
[1] = molecular target: T1, EPHA1 (Homo sapiens, UniProt P21709)
T1 sequence (P21709 26-976): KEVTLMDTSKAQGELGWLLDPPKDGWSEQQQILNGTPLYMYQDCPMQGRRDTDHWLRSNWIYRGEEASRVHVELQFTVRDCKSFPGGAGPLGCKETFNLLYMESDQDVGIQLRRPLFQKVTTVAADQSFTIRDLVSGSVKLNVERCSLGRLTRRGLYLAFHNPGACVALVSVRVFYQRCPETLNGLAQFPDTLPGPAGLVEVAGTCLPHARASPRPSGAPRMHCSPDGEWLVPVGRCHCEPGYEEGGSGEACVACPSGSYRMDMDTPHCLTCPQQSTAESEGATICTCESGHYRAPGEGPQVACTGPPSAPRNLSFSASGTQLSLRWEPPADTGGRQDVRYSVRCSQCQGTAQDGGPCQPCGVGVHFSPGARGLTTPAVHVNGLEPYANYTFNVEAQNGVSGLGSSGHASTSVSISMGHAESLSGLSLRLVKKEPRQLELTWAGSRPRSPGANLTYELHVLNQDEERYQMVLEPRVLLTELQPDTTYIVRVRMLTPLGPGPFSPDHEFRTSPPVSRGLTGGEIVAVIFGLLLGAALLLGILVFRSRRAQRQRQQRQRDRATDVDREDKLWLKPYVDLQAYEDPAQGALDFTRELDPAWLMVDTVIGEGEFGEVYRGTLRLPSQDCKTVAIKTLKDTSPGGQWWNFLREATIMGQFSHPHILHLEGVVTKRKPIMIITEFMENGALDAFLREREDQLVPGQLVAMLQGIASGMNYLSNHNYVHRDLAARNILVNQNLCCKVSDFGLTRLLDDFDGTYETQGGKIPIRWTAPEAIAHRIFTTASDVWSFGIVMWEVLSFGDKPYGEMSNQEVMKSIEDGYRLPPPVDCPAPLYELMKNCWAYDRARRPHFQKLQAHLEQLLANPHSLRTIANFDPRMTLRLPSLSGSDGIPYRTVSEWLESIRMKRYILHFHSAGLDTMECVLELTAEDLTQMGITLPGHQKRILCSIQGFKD

[2] = molecular target: T2, GRK7 (Homo sapiens, UniProt Q8WTQ7)
T2 sequence (Q8WTQ7 1-553): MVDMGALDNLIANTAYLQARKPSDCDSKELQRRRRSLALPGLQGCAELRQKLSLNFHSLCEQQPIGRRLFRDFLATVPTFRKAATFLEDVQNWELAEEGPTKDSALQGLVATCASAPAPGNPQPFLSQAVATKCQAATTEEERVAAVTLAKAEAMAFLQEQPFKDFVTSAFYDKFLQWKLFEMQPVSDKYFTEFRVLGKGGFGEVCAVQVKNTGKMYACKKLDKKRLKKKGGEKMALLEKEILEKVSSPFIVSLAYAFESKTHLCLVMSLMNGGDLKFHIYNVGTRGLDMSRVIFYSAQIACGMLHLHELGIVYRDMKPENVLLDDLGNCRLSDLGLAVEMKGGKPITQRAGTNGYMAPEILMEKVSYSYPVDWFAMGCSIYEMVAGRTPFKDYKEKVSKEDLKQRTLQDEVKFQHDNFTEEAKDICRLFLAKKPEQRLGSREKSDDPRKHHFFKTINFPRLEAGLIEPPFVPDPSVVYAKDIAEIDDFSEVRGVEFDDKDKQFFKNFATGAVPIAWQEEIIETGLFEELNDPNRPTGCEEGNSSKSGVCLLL

[3] = molecular target: LYN B (Homo sapiens, UniProt P07948)
Sequence of LYN B (P07948 1-491 isoform P07948-2): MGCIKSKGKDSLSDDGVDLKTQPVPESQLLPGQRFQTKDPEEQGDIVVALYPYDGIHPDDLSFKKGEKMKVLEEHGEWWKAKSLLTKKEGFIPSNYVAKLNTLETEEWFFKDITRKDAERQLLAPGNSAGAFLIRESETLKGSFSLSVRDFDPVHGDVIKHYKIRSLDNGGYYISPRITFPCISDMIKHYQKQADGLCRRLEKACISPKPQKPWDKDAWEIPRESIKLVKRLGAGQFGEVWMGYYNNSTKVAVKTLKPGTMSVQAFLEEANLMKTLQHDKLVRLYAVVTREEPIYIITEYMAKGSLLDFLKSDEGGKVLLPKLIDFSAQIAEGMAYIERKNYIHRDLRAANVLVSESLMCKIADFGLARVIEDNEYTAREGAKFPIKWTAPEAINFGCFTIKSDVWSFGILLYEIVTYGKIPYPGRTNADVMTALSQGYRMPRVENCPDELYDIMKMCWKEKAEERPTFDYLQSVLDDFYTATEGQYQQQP

[4] = molecular target: MLK4 (Homo sapiens, UniProt Q5TCX8)
Sequence of MLK4 (Q5TCX8 whole entry): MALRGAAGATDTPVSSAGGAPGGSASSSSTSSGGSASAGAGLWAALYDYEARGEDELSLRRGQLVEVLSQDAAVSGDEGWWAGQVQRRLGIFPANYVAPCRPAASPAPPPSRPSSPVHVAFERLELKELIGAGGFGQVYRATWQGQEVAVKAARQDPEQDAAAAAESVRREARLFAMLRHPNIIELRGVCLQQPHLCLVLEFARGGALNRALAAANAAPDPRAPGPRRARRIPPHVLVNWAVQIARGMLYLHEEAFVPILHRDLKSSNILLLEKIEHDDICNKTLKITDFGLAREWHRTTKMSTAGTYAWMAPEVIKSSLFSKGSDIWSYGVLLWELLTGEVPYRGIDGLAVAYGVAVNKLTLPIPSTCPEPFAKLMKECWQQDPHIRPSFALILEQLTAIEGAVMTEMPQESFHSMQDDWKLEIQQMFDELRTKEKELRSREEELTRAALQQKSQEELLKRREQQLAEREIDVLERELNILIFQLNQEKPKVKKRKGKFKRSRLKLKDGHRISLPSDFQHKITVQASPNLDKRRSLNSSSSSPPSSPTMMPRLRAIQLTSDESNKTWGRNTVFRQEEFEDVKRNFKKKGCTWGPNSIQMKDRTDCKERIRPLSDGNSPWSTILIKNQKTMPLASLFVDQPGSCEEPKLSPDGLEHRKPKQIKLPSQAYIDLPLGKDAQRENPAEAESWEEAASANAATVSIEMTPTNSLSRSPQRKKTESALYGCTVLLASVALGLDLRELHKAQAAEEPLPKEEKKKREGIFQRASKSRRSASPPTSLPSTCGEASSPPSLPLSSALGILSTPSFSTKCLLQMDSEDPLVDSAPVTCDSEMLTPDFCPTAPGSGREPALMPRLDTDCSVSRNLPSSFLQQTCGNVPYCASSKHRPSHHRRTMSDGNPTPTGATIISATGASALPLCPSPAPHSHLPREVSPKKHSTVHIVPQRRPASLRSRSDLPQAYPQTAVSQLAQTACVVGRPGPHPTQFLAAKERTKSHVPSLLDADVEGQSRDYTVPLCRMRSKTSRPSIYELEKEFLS

[5] = molecular target: T3, YSK4/MAP3K19 (Homo sapiens, UniProt Q56UN5)
T3 sequence (Q56UN5 1-1328): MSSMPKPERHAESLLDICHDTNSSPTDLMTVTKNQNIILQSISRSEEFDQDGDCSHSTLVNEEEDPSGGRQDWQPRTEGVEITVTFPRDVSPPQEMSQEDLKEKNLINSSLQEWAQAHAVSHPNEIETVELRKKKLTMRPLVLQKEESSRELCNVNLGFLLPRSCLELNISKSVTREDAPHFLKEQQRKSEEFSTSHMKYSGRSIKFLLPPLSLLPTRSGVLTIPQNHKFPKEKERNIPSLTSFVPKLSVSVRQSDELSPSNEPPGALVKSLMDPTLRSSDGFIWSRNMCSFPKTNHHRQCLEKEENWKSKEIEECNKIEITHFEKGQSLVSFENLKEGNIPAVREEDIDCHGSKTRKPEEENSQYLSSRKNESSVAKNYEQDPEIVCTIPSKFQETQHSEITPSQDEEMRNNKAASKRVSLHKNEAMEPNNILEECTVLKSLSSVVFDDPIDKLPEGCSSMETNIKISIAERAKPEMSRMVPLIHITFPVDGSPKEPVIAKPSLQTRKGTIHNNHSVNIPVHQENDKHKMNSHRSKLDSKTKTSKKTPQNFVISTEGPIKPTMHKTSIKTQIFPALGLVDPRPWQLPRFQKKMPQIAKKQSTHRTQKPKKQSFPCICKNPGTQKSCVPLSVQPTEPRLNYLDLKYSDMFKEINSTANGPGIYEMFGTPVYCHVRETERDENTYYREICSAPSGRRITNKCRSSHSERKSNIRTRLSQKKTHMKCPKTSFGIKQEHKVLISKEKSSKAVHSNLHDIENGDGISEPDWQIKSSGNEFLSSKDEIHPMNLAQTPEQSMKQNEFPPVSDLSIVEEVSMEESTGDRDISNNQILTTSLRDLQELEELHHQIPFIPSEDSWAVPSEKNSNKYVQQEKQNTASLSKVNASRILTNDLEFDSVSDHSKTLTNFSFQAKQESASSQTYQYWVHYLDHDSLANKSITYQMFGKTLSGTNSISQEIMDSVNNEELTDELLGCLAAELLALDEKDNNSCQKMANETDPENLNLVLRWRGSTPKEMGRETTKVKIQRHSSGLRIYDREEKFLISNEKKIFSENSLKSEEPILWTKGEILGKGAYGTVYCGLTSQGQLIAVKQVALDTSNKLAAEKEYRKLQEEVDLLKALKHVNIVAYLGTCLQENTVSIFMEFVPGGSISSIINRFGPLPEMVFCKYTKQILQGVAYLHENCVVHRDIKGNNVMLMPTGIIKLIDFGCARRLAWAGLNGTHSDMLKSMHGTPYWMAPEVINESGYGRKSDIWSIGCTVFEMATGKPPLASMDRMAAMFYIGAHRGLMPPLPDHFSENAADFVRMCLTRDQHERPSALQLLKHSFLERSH

Row | Structure (SMILES) | remaining activity at 1 µM [1] | remaining activity at 1 µM [2] | remaining activity at 1 µM [3] | remaining activity at 1 µM [4] | remaining activity at 1 µM [5]
1 | COc1cc(-c2cncc(-c3ccc(N4CCN(C)CC4)cc3)c2C)cc(F)c1C(N)=O [Compound 26a, 2-Fluoro-6-methoxy-4-(4-methyl-5-(4-(4-methylpiperazin-1-yl)phenyl)pyridin-3-yl)benzamide] | 97.5% | 95.1% | 99.2% | 95.3% | 98.2%
2 | COc1cc(-c2cncc(-c3ccc(N4C[C@@H](C)N(C)[C@@H](C)C4)cc3)c2C)cc(F)c1C(N)=O [Compound 26c, 2-Fluoro-6-methoxy-4-(4-methyl-5-(4-((3R,5S)-3,4,5-trimethylpiperazin-1-yl)phenyl)pyridin-3-yl)benzamide] | 93.3% | 91.8% | 98.2% | 96.2% | 97%

Source: PMC8213057, “Targeting ALK2: An Open Science Approach to Developing Therapeutics for the Treatment of Diffuse Intrinsic Pontine Glioma” (Journal of Medicinal Chemistry, 2020)
